Experimental data published in patent publication US6274715A, “Tricyclic erythromycin derivatives” (priority 1997, dated 2001).
≈ marks a conversion by molar mass, not a printed value.

How the values were obtained:
Assay type in all cases: cell-based
[1] = test system: PSEUDOMONAS AERUGINOSA DPHD-2862; experiment: In vitro antibacterial activity, MIC, BHI agar dilution; conditions: P. aeruginosa DPHD-2862, unit assumed
[2] = test system: STAPHYLOCOCCUS AUREUS A-5278; experiment: as above; conditions: S. aureus A-5278, unit assumed
[3] = test system: PSEUDOMONAS CEPACIA 296I; experiment: as above; conditions: P. cepacia 296I, unit assumed
[4] = test system: STAPHYLOCOCCUS AUREUS ATCC 6538P; experiment: as above; conditions: S. aureus ATCC 6538P, 35-37° C., 20 to 24 hours, unit assumed
[5] = test system: PSEUDOMONAS AERUGINOSA DPHD-5263; experiment: as above; conditions: P. aeruginosa DPHD-5263, unit assumed
[6] = test system: STREPTOCOCCUS PYOGENES 930; experiment: as above; conditions: S. pyogenes 930, unit assumed
[7] = test system: H. Influenza Dill AMP R; experiment: In vitro antibacterial activity against H. Influenza Dill AMP R, MIC; conditions: separate assay, unit assumed
Procedure: Representative compounds of the present invention were assayed in vitro for antibacterial activity as follows: Twelve petri dishes containing successive aqueous dilutions of the test compound mixed with 10 mL of sterilized Brain Heart Infusion (BHI) agar (Difco 0418-01-5) were prepared. Each plate was inoculated with 1:100 (or 1:10 for slow-growing strains, such as Micrococcus and Streptococcus) dilutions of up to 32 different microorganisms, using a Steers replicator block. The inoculated plates were incubated at 35-37° C. for 20 to 24 hours. In addition, a control plate, using BHI agar containing no test compound, was prepared and incubated at the beginning and end of each test.
After incubation, each plate was visually inspected. The minimum inhibitory concentration (MIC) was defmed as the lowest concentration of drug yielding no growth, a slight haze, or sparsely isolated colonies on the inoculum spot as compared to the growth control.
In a separate assay representative compounds of the invention were assayed in vitro for antibacterial activity against the H. Influenza Dill AMP R strain, according to the protocol described above.

[8] = test system: STAPHYLOCOCCUS AUREUS 1775; experiment: In vitro antibacterial activity, MIC, BHI agar dilution; conditions: S. aureus 1775, unit assumed
[9] = test system: STAPHYLOCOCCUS AUREUS CMX 553; experiment: as above; conditions: S. aureus CMX 553, unit assumed
[10] = test system: KLEBSIELLA PNEUMONIAE ATCC 8045; experiment: as above; conditions: K. pneumoniae ATCC 8045, unit assumed
[11] = test system: EN[…] ATCC 8043; experiment: as above; conditions: E. faecium ATCC 8043, unit assumed
Method in brief: (§1)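 Twelve successive aqueous dilutions of compound in Brain Heart Infusion agar were inoculated with 1:100 culture dilutions (1:10 for slow growers such as Micrococcus, Streptococcus) by Steers replicator and incubated at 35-37° C for 20 to 24 hours. MIC was the lowest concentration giving no growth, slight haze or sparse colonies versus drug-free control.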

[12] = test system: M[…] ATCC 4698; experiment: as above; conditions: M. luteus ATCC 4698, unit assumed
Method in brief: as §1

[13] = test system: STR[…] 508; experiment: as above; conditions: S. agalactiae CMX 508, unit assumed
Method in brief: as §1

[14] = test system: M[…] ATCC 9341; experiment: as above; conditions: M. luteus ATCC 9341, unit assumed
Method in brief: as §1

[15] = test system: ESCHERICHIA COLI SS; experiment: as above; conditions: E. coli SS, unit assumed
[16] = test system: STAPHYLOCOCCUS AUREUS NCTC10649M; experiment: as above; conditions: S. aureus NCTC10649M, unit assumed
[17] = test system: STREPTOCOCCUS PYOGENES PIU 2548; experiment: as above; conditions: S. pyogenes PIU 2548, unit assumed
[18] = test system: ESCHERICHIA COLI KNK 437; conditions: E. coli KNK 437; BHI agar; unit assumed
[19] = test system: STREPTOCOCCUS BOVIS A-5169; experiment: In vitro antibacterial activity, MIC, BHI agar dilution; conditions: S. bovis A-5169, unit assumed
[20] = test system: PSEUDOMONAS AERUGINOSA BMH10; experiment: as above; conditions: P. aeruginosa BMH10, unit assumed
[21] = test system: MYCOBACTERIUM SMEGMATIS ATCC 114; experiment: as above; conditions: M. smegmatis ATCC 114, unit assumed
[22] = test system: CANDIDA ALBICANS CCH 442; experiment: as above; conditions: C. albicans CCH 442, unit assumed
[23] = test system: STREPTOCOCCUS PYOGENES EES61; experiment: as above; conditions: S. pyogenes EES61, unit assumed
[24] = test system: PROVIDENCIA STUARTII CMX 640; conditions: P. stuartii CMX 640; BHI agar; unit assumed
[25] = test system: STAPHYLOCOCCUS AUREUS A5177; experiment: In vitro antibacterial activity, MIC, BHI agar dilution; conditions: S. aureus A5177, unit assumed
[26] = test system: ESCHERICHIA COLI H560; experiment: as above; conditions: E. coli H560, unit assumed
[27] = test system: PSEUDOMONAS AERUGINOSA K799/61; experiment: as above; conditions: P. aeruginosa K799/61, unit assumed
[28] = test system: ESCHERICHIA COLI JUHL; conditions: E. coli JUHL; BHI agar; unit assumed
[29] = test system: STAPHYLOCOCCUS AUREUS CMX 642A; experiment: In vitro antibacterial activity, MIC, BHI agar dilution; conditions: S. aureus CMX 642A, unit assumed
[30] = test system: PSEUDOMONAS AERUGINOSA 5007; experiment: as above; conditions: P. aeruginosa 5007, unit assumed
[31] = test system: ESCHERICHIA COLI DC-2; experiment: as above; conditions: E. coli DC-2, unit assumed
[32] = test system: STAPHYLOCOCCUS EPIDERMIDIS 3519; conditions: S. epidermidis 3519; BHI agar; unit assumed
[33] = test system: PSEUDOMONAS AERUGINOSA K799/WT; experiment: In vitro antibacterial activity, MIC, BHI agar dilution; conditions: P. aeruginosa K799/WT, unit assumed
[34] = test system: ENTEROBACTER AEROGENES ATCC 13048; experiment: as above; conditions: E. aerogenes ATCC 13048, unit assumed

CC[C@H]1OC(=O)[C@H](C)C(=O)[C@H](C)[C@@H](O[C@@H]2O[C@H](C)C[C@H](N(C)C)[C@H]2O)[C@](C)(OC)C[C@@H](C)C2=NC[C@H](COCc3ccccc3)N3C(=O)O[C@@]1(C)[C@H]3[C@H]2C [Example 41]
MIC [1]: 50 µg/mL (≈ 66 µM)
MIC [2]: > 100 µg/mL
MIC [3]: 12.5 µg/mL (≈ 16.5 µM)
MIC [4]: 0.05 µg/mL (≈ 0.066 µM)
MIC [5]: 12.5 µg/mL (≈ 16.5 µM)
MIC [6]: > 100 µg/mL
MIC [7]: 2 µg/mL (≈ 2.64 µM)
MIC [8]: > 100 µg/mL
MIC [9]: 0.05 µg/mL (≈ 0.066 µM)
MIC [10]: 25 µg/mL (≈ 33 µM)
MIC [11]: 0.02 µg/mL (≈ 0.0264 µM)
MIC [12]: 0.1 µg/mL (≈ 0.132 µM)
MIC [13]: 0.02 µg/mL (≈ 0.0264 µM)
MIC [14]: 0.01 µg/mL (≈ 0.0132 µM)
MIC [15]: 0.2 µg/mL (≈ 0.264 µM)
MIC [16]: 0.05 µg/mL (≈ 0.066 µM)
MIC [17]: 0.2 µg/mL (≈ 0.264 µM)
MIC [18]: 6.2 µg/mL (≈ 8.18 µM)
MIC [19]: ≤ 0.005 µg/mL
MIC [20]: 50 µg/mL (≈ 66 µM)
MIC [21]: 0.2 µg/mL (≈ 0.264 µM)
MIC [22]: > 100 µg/mL
MIC [23]: 0.01 µg/mL (≈ 0.0132 µM)
MIC [24]: 50 µg/mL (≈ 66 µM)
MIC [25]: 0.05 µg/mL (≈ 0.066 µM)
MIC [26]: 1.56 µg/mL (≈ 2.06 µM)
MIC [27]: 0.2 µg/mL (≈ 0.264 µM)
MIC [28]: 6.2 µg/mL (≈ 8.18 µM)
MIC [29]: 0.05 µg/mL (≈ 0.066 µM)
MIC [30]: 50 µg/mL (≈ 66 µM)
MIC [31]: 3.1 µg/mL (≈ 4.09 µM)

CC[C@H]1OC(=O)[C@H](C)C(=O)[C@H](C)[C@@H](O[C@@H]2O[C@H](C)C[C@H](N(C)C)[C@H]2O)[C@](C)(OC)C[C@@H](C)C2=NC[C@H](COCc3cccc(F)c3)N3C(=O)O[C@@]1(C)[C@H]3[C@H]2C [Example 72]
MIC [1]: > 100 µg/mL
MIC [32]: 0.2 µg/mL (≈ 0.258 µM)
MIC [2]: > 100 µg/mL
MIC [3]: 50 µg/mL (≈ 64.4 µM)
MIC [4]: 0.1 µg/mL (≈ 0.129 µM)
MIC [5]: > 100 µg/mL
MIC [6]: 50 µg/mL (≈ 64.4 µM)
MIC [7]: 2 µg/mL (≈ 2.58 µM)
MIC [8]: > 100 µg/mL
MIC [9]: 0.1 µg/mL (≈ 0.129 µM)
MIC [33]: 50 µg/mL (≈ 64.4 µM)
MIC [11]: 0.05 µg/mL (≈ 0.0644 µM)
MIC [12]: 0.2 µg/mL (≈ 0.258 µM)
MIC [13]: 0.01 µg/mL (≈ 0.0129 µM)
MIC [14]: ≤ 0.005 µg/mL
MIC [15]: 0.39 µg/mL (≈ 0.503 µM)
MIC [16]: 0.1 µg/mL (≈ 0.129 µM)
MIC [17]: 0.39 µg/mL (≈ 0.503 µM)
MIC [18]: 50 µg/mL (≈ 64.4 µM)
MIC [19]: ≤ 0.005 µg/mL
MIC [20]: 50 µg/mL (≈ 64.4 µM)
MIC [21]: 0.39 µg/mL (≈ 0.503 µM)
MIC [22]: > 100 µg/mL
MIC [23]: 0.01 µg/mL (≈ 0.0129 µM)
MIC [24]: > 100 µg/mL
MIC [25]: 0.1 µg/mL (≈ 0.129 µM)
MIC [26]: 12.5 µg/mL (≈ 16.1 µM)
MIC [27]: 0.39 µg/mL (≈ 0.503 µM)
MIC [34]: 50 µg/mL (≈ 64.4 µM)
MIC [28]: 50 µg/mL (≈ 64.4 µM)
MIC [29]: 0.1 µg/mL (≈ 0.129 µM)
MIC [30]: 100 µg/mL (≈ 129 µM)
MIC [31]: 25 µg/mL (≈ 32.2 µM)

CC[C@H]1OC(=O)[C@H](C)C(=O)[C@H](C)[C@@H](O[C@@H]2O[C@H](C)C[C@H](N(C)C)[C@H]2O)[C@](C)(OC)C[C@@H](C)C2=NCC(CNCc3ccccc3)N3C(=O)O[C@@]1(C)[C@H]3[C@H]2C (stereo partly drawn) [Example 131]
MIC [1]: > 100 µg/mL
MIC [32]: 0.39 µg/mL (≈ 0.515 µM)
MIC [2]: > 100 µg/mL
MIC [3]: 25 µg/mL (≈ 33 µM)
MIC [4]: 0.39 µg/mL (≈ 0.515 µM)
MIC [5]: > 100 µg/mL
MIC [6]: > 100 µg/mL
MIC [7]: 4 µg/mL (≈ 5.28 µM)
MIC [8]: > 100 µg/mL
MIC [9]: 0.39 µg/mL (≈ 0.515 µM)
MIC [33]: 50 µg/mL (≈ 66.1 µM)
MIC [11]: 0.1 µg/mL (≈ 0.132 µM)
MIC [12]: 0.2 µg/mL (≈ 0.264 µM)
MIC [13]: 0.05 µg/mL (≈ 0.0661 µM)
MIC [14]: 0.02 µg/mL (≈ 0.0264 µM)
MIC [15]: 0.2 µg/mL (≈ 0.264 µM)
MIC [16]: 0.39 µg/mL (≈ 0.515 µM)
MIC [17]: 0.78 µg/mL (≈ 1.03 µM)
MIC [18]: 25 µg/mL (≈ 33 µM)
MIC [20]: > 100 µg/mL
MIC [21]: 1.56 µg/mL (≈ 2.06 µM)
MIC [22]: > 100 µg/mL
MIC [23]: 0.02 µg/mL (≈ 0.0264 µM)
MIC [24]: > 100 µg/mL
MIC [25]: 0.39 µg/mL (≈ 0.515 µM)
MIC [26]: 12.5 µg/mL (≈ 16.5 µM)
MIC [27]: 0.78 µg/mL (≈ 1.03 µM)
MIC [34]: 50 µg/mL (≈ 66.1 µM)
MIC [28]: 50 µg/mL (≈ 66.1 µM)
MIC [29]: 0.39 µg/mL (≈ 0.515 µM)
MIC [30]: > 100 µg/mL
MIC [31]: 25 µg/mL (≈ 33 µM)
